# Reference: patent US20250186450A1, “COMBINATION THERAPY COMPRISING DGK INHIBITORS and PD-1/PD-L1 INHIBITORS” (Incyte Corporation, priority 2023, published 2025)
# Key:
# [1] = system: human CD3+ T cells co-cultured with allogenic dendritic cells; experiment: Allogenic mixed lymphocyte reaction assay, IFNγ by HTRF; format: cell-based
# Protocol: To assess the ability of 4-((2S,5R)-4-((3,3-difluorocyclobutyl)(4-(trifluoromethyl)phenyl)methyl)-2,5-dimethylpiperazin-1-yl)-2-methyl-1-(((S)-tetrahydrofuran-2-yl)methyl)-1H-[1,2,4]triazolo[3,4-b]purine (i.e., Compound 2) to further enhance the T cell effector function induced by checkpoint blockade, the combination effect of Compound 2 and anti-PD-1 reagent (retifanlimab and pembrolizumab) was evaluated in an allogenic mixed lymphocyte reaction assay.
# In brief, Human PBMCs were isolated from leukopaks (BioIVT) obtained from healthy donors by the Ficoll-Paque (Cytiva 17144002) cell separation method. Monocyte isolation was performed using the Dynabeads Untouched human monocyte kit (Life Technologies 11350D), and monocytes were cultured in 10% FBS RPMI 1640 treated with 100 ng/mL granulocyte-macrophage colony-stimulating factor (R&D Systems 215-GM/CF) and 50 ng/mL IL-4 (R&D Systems 204-IL/CF) for at least 6 days at 37° C. with 5% CO2 to differentiate into dendritic cells. Pan T cells were isolated using the Dynabeads Untouched human T-cell kit (Life Technologies 11344D) and plated at 1×10^5 cells/well in 100 μL of 10% FBS RPMI 1640 in 96-well, round-bottom plates (Costar 3879). […] After 20 hours of incubation at room temperature, the HTRF signal was measured by the PHERAstar FSX microplate reader (BMG Labtech). […]
# [2] = molecular target: DGKζ (Homo sapiens (Human), UniProt Q13574); experiment: In vitro DGKζ inhibition assay (ADP-Glo); format: biochemical; details: 0.4 nM DGKζ, 30 μM ATP, 20 μM DLG
# Protocol: (§1) The DGKα and DGKζ biochemical reactions were performed using His-tagged human recombinant enzymes (Signal Chem, DGKα, #D21-10BH; DGKζ, #D30-10H)) and DLG (Dilauroyl-sn-glycerol) lipid substrate (Signal Chem, #D430-59). ADP-Glo assay was performed using ADP-Glo™ kinase Assay kit (Promega, #V9104). The reactions were carried out in assay buffer containing 40 mM Tris, pH 7.5, 0.1% CHAPS, 0.1% Prionex, 40 mM NaCl, 5 mM MgCl2, 1 mM CaCl2, and 1 mM DTT. DGKα reactions contained 0.1 nM DGKα, 50 μM ATP, and 20 μM DLG. And DGKζ reactions contained 0.4 nM DGKζ, 30 μM ATP, and 20 μM DLG.
# (§2) For compound inhibition studies, 40 nL test compound in DMSO was added to wells of white polystyrene plates in 384-well (Greiner, #784075) or 1536-well format (Greiner, #782075). Compounds were added with top concentration of 2 mM with 11 point, 3-fold dilution series. Enzyme solution (contains 2×DGK enzyme concentration in 1× assay buffer) was added to the plate in 2 μL/well volume, followed by 2 μL/well of substrate solution (contains 2× concentration of ATP and DLG substrate in 1× assay buffer). Plates were then centrifuged for 1 min at 1200 RPM and sealed or lidded. For 4 μL reaction volume, test compounds were therefore diluted 100× to final top concentration of 20 μM. After 90 minute incubation, reactions were quenched by addition of 2 μL/well Promega ADP-Glo Reagent, followed by centrifugation and lidding. After 60 min incubation, 2 μL/well Promega Kinase Detection Reagent was added, plates centrifuged, and incubated for 30 min. Plates were then read using Luminescence method on BMG PHERAstar FSX plate reader. Percent inhibition was calculated and IC50s were determined using 4-parameter fit in Genedata Screener. Labcyte Echo acoustic dispenser was used for compound addition, and Formulatrix Tempest liquid handler was used for all reagent dispenses.
# [3] = molecular target: DGKα (Homo sapiens (Human), UniProt P23743); experiment: In vitro DGKα inhibition assay (ADP-Glo); format: biochemical; details: 0.1 nM DGKα, 50 μM ATP, 20 μM DLG
# Protocol: as §1, §2
# DGKζ, sequence (Q13574 whole entry): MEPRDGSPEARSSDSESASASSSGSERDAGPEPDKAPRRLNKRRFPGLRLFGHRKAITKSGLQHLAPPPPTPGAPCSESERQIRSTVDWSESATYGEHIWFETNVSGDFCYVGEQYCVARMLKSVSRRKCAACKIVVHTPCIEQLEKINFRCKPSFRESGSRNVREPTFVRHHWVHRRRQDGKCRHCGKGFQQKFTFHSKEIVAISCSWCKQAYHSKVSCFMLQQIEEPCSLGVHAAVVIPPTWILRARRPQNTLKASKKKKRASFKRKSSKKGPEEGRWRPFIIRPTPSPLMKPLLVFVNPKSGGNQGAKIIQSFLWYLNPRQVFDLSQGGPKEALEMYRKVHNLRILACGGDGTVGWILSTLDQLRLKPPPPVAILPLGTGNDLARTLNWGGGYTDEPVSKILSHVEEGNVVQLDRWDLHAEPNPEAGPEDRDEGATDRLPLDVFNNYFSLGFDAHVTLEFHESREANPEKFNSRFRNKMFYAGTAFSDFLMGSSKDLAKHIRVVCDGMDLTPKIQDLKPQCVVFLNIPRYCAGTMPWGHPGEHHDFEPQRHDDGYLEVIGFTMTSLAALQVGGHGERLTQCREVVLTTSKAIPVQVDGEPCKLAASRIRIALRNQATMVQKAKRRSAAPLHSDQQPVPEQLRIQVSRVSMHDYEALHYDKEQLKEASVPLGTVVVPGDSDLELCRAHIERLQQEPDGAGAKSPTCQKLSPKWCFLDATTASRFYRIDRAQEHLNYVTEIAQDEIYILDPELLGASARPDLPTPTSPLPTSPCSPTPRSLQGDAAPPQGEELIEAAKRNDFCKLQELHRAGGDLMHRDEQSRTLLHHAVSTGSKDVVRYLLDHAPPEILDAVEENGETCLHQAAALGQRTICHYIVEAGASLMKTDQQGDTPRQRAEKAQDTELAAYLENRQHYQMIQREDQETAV
# DGKα, sequence (P23743 whole entry): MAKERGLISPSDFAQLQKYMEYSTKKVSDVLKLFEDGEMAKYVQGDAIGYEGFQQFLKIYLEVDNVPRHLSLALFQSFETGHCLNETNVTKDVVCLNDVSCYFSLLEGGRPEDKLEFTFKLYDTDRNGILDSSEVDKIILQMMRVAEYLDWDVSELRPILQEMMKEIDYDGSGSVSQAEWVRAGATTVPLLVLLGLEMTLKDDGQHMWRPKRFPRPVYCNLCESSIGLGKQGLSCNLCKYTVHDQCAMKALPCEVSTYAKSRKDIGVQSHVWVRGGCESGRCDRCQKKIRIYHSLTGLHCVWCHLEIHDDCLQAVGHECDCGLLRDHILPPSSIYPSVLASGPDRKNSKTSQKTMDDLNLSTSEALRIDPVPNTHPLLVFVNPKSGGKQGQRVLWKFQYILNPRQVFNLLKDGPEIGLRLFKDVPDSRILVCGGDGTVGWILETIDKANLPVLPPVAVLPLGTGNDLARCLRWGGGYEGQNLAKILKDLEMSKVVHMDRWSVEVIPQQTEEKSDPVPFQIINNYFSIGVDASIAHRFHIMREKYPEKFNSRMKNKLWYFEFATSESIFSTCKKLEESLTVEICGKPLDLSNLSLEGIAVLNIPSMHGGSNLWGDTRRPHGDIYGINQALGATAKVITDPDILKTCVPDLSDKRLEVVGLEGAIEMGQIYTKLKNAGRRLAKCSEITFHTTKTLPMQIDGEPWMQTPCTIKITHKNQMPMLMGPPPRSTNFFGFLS
SMILES,"production of IFNγ, combination vs single agents ([1]; 4 nM Compound 2 plus 0.7 nM pembrolizumab vs anti-PD-1 mAb or Compound 2 single agent, FIG. 5B)","production of IFNγ, combination vs single agents ([1]; 4 nM Compound 2 plus 0.7 nM retifanlimab vs anti-PD-1 mAb or Compound 2 single agent, FIG. 5A)",IC50 [2] [nM],IC50 [3] [nM]
"Cc1nc2c(N3C[C@@H](C)N(C(c4ccc(C(F)(F)F)cc4)C4CC(F)(F)C4)C[C@@H]3C)nc3nncn3c2n1C[C@@H]1CCCO1 (single isomer, unassigned) [Example 2]",statistically significant higher production of IFNγ,statistically significant higher production of IFNγ,≤ 20,≤ 20
"C[C@@H]1CN(c2nc3nncn3c3c2nnn3C[C@H]2CCCO2)[C@@H](C)CN1C(c1ccc(F)cc1)c1ccc(F)cc1 [Example 1, 4-((2S,5R)-4-(Bis(4-fluorophenyl)methyl)-2,5-dimethylpiperazin-1-yl)-1-(((R)-tetrahydrofuran-2-yl)methyl)-1H-[1,2,3]triazolo[4,5-e][1,2,4]triazolo[4,3-a]pyrimidine]",,,≤ 20,≤ 20
